# Read-outs that look alike come from different tables or passages of the source.
# Columns and labels:
# Test in all cases: in vitro antibacterial activity, microtitration dilution method
# Assay type in all cases: cell-based
# [1] = tested on: Streptococcus pneumoniae SV-1; details: SV1; Streptococcus pneumoniae SV-1, in vitro; read-out: Minimal Inhibitory Concentration MIC
# Description: (§1) The compounds of the invention display antibacterial activity when tested by the microtitration dilution method as described in Heifetz, et al, Antimicr. Agents & Chemoth., 6, 124 (1974), which is incorporated herein by reference.
# (§2) By use of the above referenced method, the following minimum inhibitory concentration values (MICs in μg/ml) were obtained for representative compounds of the invention.
# [2] = tested on: Staphylococcus aureus H 228; details: H228; Staphylococcus aureus H 228, in vitro; read-out: Minimal Inhibitory Concentration MIC
# Description: as §1, §2
# [3] = tested on: Streptococcus pyogenes C-203; details: C203; Streptococcus pyogenes C-203, in vitro; read-out: Minimal Inhibitory Concentration MIC
# Description: as §1, §2
# [4] = tested on: Staphylococcus aureus UC-76; details: UC76; Staphylococcus aureus UC-76, in vitro; read-out: Minimal Inhibitory Concentration MIC
# Description: as §1, §2
# [5] = tested on: Streptococcus faecalis MGH-2; details: Enterococcus faecalis, MGH2; Streptococcus faecalis MGH-2, in vitro; read-out: Minimal Inhibitory Concentration MIC
# Description: as §1, §2
# [6] = tested on: Escherichia coli Vogel; details: read-out: Minimal Inhibitory Concentration MIC
# Description: (§3) Agents & Chemoth., 6, 124 (1974), which is incorporated herein by reference.
# [7] = tested on: Enterobacter cloacae MA 2646
# Description: as §3
# [8] = tested on: Klebsiella pneumoniae MGH-2
# Description: as §3
# [9] = tested on: Pseudomonas aeruginosa UI-18; details: UI18; Pseudomonas aeruginosa UI-18, in vitro; read-out: Minimal Inhibitory Concentration MIC
# Description: as §3
# [10] = tested on: Proteus rettgeri M 1771; details: Providencia rettgeri
# Description: as §3
# [11] = MA2646, Enterobacter cloacae MA 2646, in vitro, read-out: Minimal Inhibitory Concentration MIC
# [12] = M1771, Proteus rettgeri M 1771, in vitro, read-out: Minimal Inhibitory Concentration MIC
# [13] = Klebsiella pneumoniae, MGH2, read-out: Minimal Inhibitory Concentration MIC
# [14] = M1771, read-out: Minimal Inhibitory Concentration MIC
SMILES,MIC [1] [µg/mL],MIC [2] [µg/mL],MIC [3] [µg/mL],MIC [4] [µg/mL],MIC [5] [µg/mL],MIC [6] [µg/mL],"MIC [7, 11] [µg/mL]","MIC ([8]; MGH2, Klebsiella pneumoniae MGH-2, in vitro, read-out: Minimal Inhibitory Concentration MIC) [µg/mL]",MIC [9] [µg/mL],"MIC [10, 12] [µg/mL]","MIC ([7]; Enterobacter cloacae, MA2646, read-out: Minimal Inhibitory Concentration MIC) [µg/mL]","MIC [8, 13] [µg/mL]","MIC [10, 14] [µg/mL]"
"NC1CN(c2c(F)cc3c(=O)c(C(=O)O)cn(C4CC4)c3c2F)CC1c1ccccc1 (centres unmarked) [Example 3, 7-[(3-Amino-4-phenyl)-1-pyrrolidinyl]-1-cyclopropyl-6,8-difluoro-1,4-dihydro-4-oxo-3-quinolinecarboxylic acid]",0.1,0.05,0.1,0.025,0.1,0.1,0.2,0.2,1.6,0.4,–,–,–
"NC1(c2ccccc2)CCN(c2c(F)cc3c(=O)c(C(=O)O)cn(C4CC4)c3c2F)C1 (centres unmarked) [Example 1, 7-[(3-Amino-3-phenyl)-1-pyrrolidinyl]-1-cyclopropyl-6,8-difluoro-1,4-dihydro-4-oxo-3-quinolinecarboxylic acid]",0.025,0.006,0.05,0.006,0.05,0.05,–,–,–,–,0.05,0.1,0.1
NCC1CN(c2c(F)cc3c(=O)c(C(=O)O)cn(C4CC4)c3c2F)CC1c1ccccc1 (centres unmarked) [Example 2],0.006,0.013,0.013,0.006,0.013,–,0.2,–,1.6,0.4,–,0.1,–
"O=C(O)c1cn(C2CC2)c2c(F)c(N3CCC(O)(c4ccccc4)C3)c(F)cc2c1=O (centres unmarked) [Example 4, 1-Cyclopropyl-6,8-difluoro-1,4-dihydro-7-[(3-hydroxy-3-phenyl)1-pyrrolidinyl]-4-oxo-3-quinolinecarboxylic acid]",0.013,0.003,0.05,0.003,0.025,–,–,–,–,–,–,0.1,0.1

# — patent US4735949A, “Disubstituted-7-pyrrolidinonaphthyridine antibacterial agents” (Warner-Lambert Company, priority 1987, dated 1988)
